From patent US20240228555A9, “ANTIMICROBIAL PEPTIDOMIMETICS” (Basilea Pharmaceutica International AG, Allschwil, priority 2020, published 2024)
Where a SMILES comes first, the peptide text is derived from it.

What was measured:
[1] = system: human red blood cells (hRBC); format: cell-based; conditions: red cells of human, 1 h, 0.2 g/L
Protocol: (§1) Lyophilized peptides were weighed on a Microbalance (Mettler MT5) and dissolved in sterile water to a final concentration of 1 mg/mL. Stock solutions were kept at +4° C., light protected.
The peptides were tested for their hemolytic activity against human red blood cells (hRBC). Fresh hRBC were washed three times with phosphate buffered saline (PBS) and centrifuged for 5 min at 3000×g. Compounds (200 μg/mL) were incubated with 20% hRBC (v/v) for 1 h at 37° C. and shaking at 300 rpm. A value of 0% and 100% cell lyses, respectively, was determined by incubation of hRBC in the presence of PBS and 2.5% Triton X-100 in H2O, respectively. The samples were centrifuged, the supernatants were 8-fold diluted in PBS buffer and the optical densities (OD) were measured at 540 nm. The 100% lyses value (OD540H2O) gave an OD540 of approximately 0.5-1.0.
Percent hemolysis was calculated as follows: (OD540peptide/OD540H2O)×100%.

[2] = system: Klebsiella pneumoniae SSI3010; conditions: SSI3010
Protocol: as §1
(§2) Colonies of the microorganisms were diluted in saline (0.85%, NaCl) and adjusted using a McFarland reader (bioMérieux SA, Marcy-l'Etoile, France) to 0.5 McFarland standard. Subsequently, the bacterial suspension was diluted in Mueller-Hinton II (MHII, cation adjusted) broth to give approximately 5×10^5 colony forming units (CFU/mL).
(§3) 10^6 colony forming units (CFU)/mL. Aliquots (90 μl) of inoculate were added to 10 μl of water+P-80 (Polysorbate 80, 0.002% final concentration) containing the peptide in serial two-fold dilutions at 10 fold final concentration. The following microorganisms were used to determine antibiotic selectivity of the peptides: Escherichia coli ATCC 25922, Escherichia coli MCR-1 Af 45 and Klebsiella pneumoniae SSI3010.

[3] = system: Escherichia coli MCR-1 Af 45; conditions: Mueller-Hinton broth II, no visible growth after 18-20 hours at 35° C.
Protocol: as §1, §2, §3

[4] = system: Escherichia coli ATCC 25922; conditions: ATCC 25922
Protocol: as §1, §2, §3

Compound	Hemolysis at 0.2 g/L [1] [%]	Klebsiella pneumoniae SSI3010 MIC [2] [µg/mL]	Escherichia coli MCR-1 Af 45 MIC [3] [µg/mL]	Escherichia coli ATCC 25922 MIC [4] [µg/mL]
CC[C@H](C)[C@H](NC(=O)[C@@H](NC(=O)[C@@H]1C[C@@H](N)CN1C(=O)[C@@H](N)C(C)C)[C@@H](C)CC)C(=O)N[C@@H](Cc1ccc(O)cc1)C(=O)N[C@@H]1C(=O)N[C@@H](CC(N)=O)C(=O)N[C@@H](CCCNC(=N)N)C(=O)N[C@@H](CCN)C(=O)N[C@@H]([C@@H](C)O)C(=O)N[C@H](CCN)C(=O)N[C@@H](CCCCN)C(=O)N[C@H](C(=O)N[C@@H](CCN)C(=O)N[C@@H](CO)C(=O)N[C@@H](Cc2ccc(O)cc2)C(=O)O)CSSC1(C)C [Example 100, Val-Pro((4R)NH2)-Ile-Ile-Tyr-Pen-Asn-Arg-Dab-Thr-^DDab-Lys-Cys-Dab-Ser-Tyr] (HELM PEPTIDE1{V.[N[C@@H]1C[C@@H](C(=O)[*:2])N([*:1])C1].I.I.Y.[Pen].N.R.[Dab].T.[NCC[C@@H](N[*:1])C(=O)[*:2]].K.C.[Dab].S.Y}$PEPTIDE1,PEPTIDE1,6:R3-13:R3$$$V2.0)	<1	0.25	0.0625	0.25
CC[C@H](C)[C@H](NC(=O)[C@@H](NC(=O)[C@@H]1C[C@@H](O)CN1C(=O)[C@@H](N)C(C)C)[C@@H](C)CC)C(=O)N[C@@H](Cc1ccc(O)cc1)C(=O)N[C@@H]1C(=O)N[C@@H](CC(N)=O)C(=O)N[C@@H](CCCNC(=N)N)C(=O)N[C@@H](CCN)C(=O)N[C@@H](CO)C(=O)N[C@H](CCN)C(=O)N[C@@H](CCCCN)C(=O)N[C@H](C(=O)N[C@@H](CCN)C(=O)N[C@@H](CCCNC(=N)N)C(=O)N[C@@H](Cc2ccc(O)cc2)C(=O)O)CSSC1(C)C [Example 75, Val-Hyp-Ile-Ile-Tyr-Pen-Asn-Arg-Dab-Ser-^DDab-Lys-Cys-Dab-Arg-Tyr] (HELM PEPTIDE1{V.[Hyp].I.I.Y.[Pen].N.R.[Dab].S.[NCC[C@@H](N[*:1])C(=O)[*:2]].K.C.[Dab].R.Y}$PEPTIDE1,PEPTIDE1,6:R3-13:R3$$$V2.0)	<1	0.125	0.0625	0.0625
CC[C@H](C)[C@H](NC(=O)[C@@H](NC(=O)[C@@H]1C[C@@H](O)CN1C(=O)[C@@H](N)C(C)C)[C@@H](C)CC)C(=O)N[C@@H](Cc1ccc(O)cc1)C(=O)N[C@@H]1C(=O)N[C@@H](CC(N)=O)C(=O)N[C@@H](CCCNC(=N)N)C(=O)N[C@@H](CCN)C(=O)N[C@@H](CO)C(=O)N[C@H](CCN)C(=O)N[C@@H]([C@@H](C)CC)C(=O)N[C@H](C(=O)N[C@@H](CCN)C(=O)N[C@@H](CCCN)C(=O)N[C@@H](Cc2ccc(O)cc2)C(=O)O)CSSC1(C)C [Example 96, Val-Hyp-Ile-Ile-Tyr-Pen-Asn-Arg-Dab-Ser-^DDab-Ile-Cys-Dab-Orn-Tyr] (HELM PEPTIDE1{V.[Hyp].I.I.Y.[Pen].N.R.[Dab].S.[NCC[C@@H](N[*:1])C(=O)[*:2]].I.C.[Dab].[Orn].Y}$PEPTIDE1,PEPTIDE1,6:R3-13:R3$$$V2.0)	<1	0.5	0.25	0.25
CC[C@H](C)[C@H](NC(=O)[C@@H](NC(=O)[C@@H]1C[C@@H](O)CN1C(=O)[C@@H](N)C(C)C)[C@@H](C)CC)C(=O)N[C@@H](Cc1ccc(O)cc1)C(=O)N[C@@H]1C(=O)N[C@@H](CC(N)=O)C(=O)N[C@@H](CCCNC(=N)N)C(=O)N[C@@H](CCCN)C(=O)N[C@@H]([C@@H](C)O)C(=O)N[C@H](CCN)C(=O)N[C@@H]([C@@H](C)CC)C(=O)N[C@H](C(=O)N[C@@H](CCN)C(=O)N[C@@H](CCCNC(=N)N)C(=O)N[C@@H](Cc2ccc(O)cc2)C(=O)O)CSSC1(C)C [Example 121, Val-Hyp-Ile-Ile-Tyr-Pen-Asn-Arg-Orn-Thr-^DDab-Ile-Cys-Dab-Arg-Tyr] (HELM PEPTIDE1{V.[Hyp].I.I.Y.[Pen].N.R.[Orn].T.[NCC[C@@H](N[*:1])C(=O)[*:2]].I.C.[Dab].R.Y}$PEPTIDE1,PEPTIDE1,6:R3-13:R3$$$V2.0)	<1	0.5	0.25	0.25
CC[C@H](C)[C@H](NC(=O)[C@@H]1C[C@@H](N)CN1C(=O)[C@@H](N)C(C)C)C(=O)N[C@H](C(=O)N[C@@H](Cc1ccc(O)cc1)C(=O)N[C@@H]1C(=O)N[C@@H](CC(N)=O)C(=O)N[C@@H](CCCNC(=N)N)C(=O)N[C@@H](CCN)C(=O)N[C@@H]([C@@H](C)O)C(=O)N[C@H](CCN)C(=O)N[C@@H](CCCNC(N)=O)C(=O)N[C@H](C(=O)N[C@@H](CCN)C(=O)N[C@@H](CO)C(=O)N[C@@H](Cc2ccc(O)cc2)C(=O)O)CSSC1(C)C)[C@@H](C)O [Example 102, Val-Pro((4R)NH2)-Ile-Thr-Tyr-Pen-Asn-Arg-Dab-Thr-^DDab-Cit-Cys-Dab-Ser-Tyr] (HELM PEPTIDE1{V.[N[C@@H]1C[C@@H](C(=O)[*:2])N([*:1])C1].I.T.Y.[Pen].N.R.[Dab].T.[NCC[C@@H](N[*:1])C(=O)[*:2]].[Cit].C.[Dab].S.Y}$PEPTIDE1,PEPTIDE1,6:R3-13:R3$$$V2.0)	<1	0.25	0.125	0.25
CC[C@H](C)[C@H](NC(=O)[C@@H](NC(=O)[C@@H]1C[C@@H](N)CN1C(=O)[C@@H](N)C(C)C)[C@@H](C)CC)C(=O)N[C@@H](Cc1ccc(O)cc1)C(=O)N[C@@H]1C(=O)N[C@@H](CC(N)=O)C(=O)N[C@@H](CCCNC(=N)N)C(=O)N[C@@H](CCN)C(=O)N[C@@H]([C@@H](C)O)C(=O)N[C@H](CCN)C(=O)N[C@@H](CCCNC(N)=O)C(=O)N[C@H](C(=O)N[C@@H](CCN)C(=O)N[C@@H](CO)C(=O)N[C@@H](Cc2ccc(O)cc2)C(=O)O)CSSC1(C)C [Example 106, Val-Pro((4R)NH2)-Ile-Ile-Tyr-Pen-Asn-Arg-Dab-Thr-^DDab-Cit-Cys-Dab-Ser-Tyr] (HELM PEPTIDE1{V.[N[C@@H]1C[C@@H](C(=O)[*:2])N([*:1])C1].I.I.Y.[Pen].N.R.[Dab].T.[NCC[C@@H](N[*:1])C(=O)[*:2]].[Cit].C.[Dab].S.Y}$PEPTIDE1,PEPTIDE1,6:R3-13:R3$$$V2.0)	<1	0.25	0.25	0.25
CC[C@H](C)[C@H](NC(=O)[C@@H]1C[C@@H](O)CN1C(=O)[C@@H](N)C(C)C)C(=O)N[C@@H](CCCN)C(=O)N[C@@H](Cc1ccc(O)cc1)C(=O)N[C@@H]1C(=O)N[C@@H](CC(N)=O)C(=O)N[C@@H](CCCNC(=N)N)C(=O)N[C@@H](CCN)C(=O)N[C@@H]([C@@H](C)O)C(=O)N[C@H](CCN)C(=O)N[C@@H](CCCCN)C(=O)N[C@H](C(=O)N[C@@H](CCN)C(=O)N[C@H](C(=O)N[C@@H](Cc2ccc(O)cc2)C(=O)O)[C@@H](C)O)CSSC1(C)C [Example 122, Val-Hyp-Ile-Orn-Tyr-Pen-Asn-Arg-Dab-Thr-^DDab-Lys-Cys-Dab-Thr-Tyr] (HELM PEPTIDE1{V.[Hyp].I.[Orn].Y.[Pen].N.R.[Dab].T.[NCC[C@@H](N[*:1])C(=O)[*:2]].K.C.[Dab].T.Y}$PEPTIDE1,PEPTIDE1,6:R3-13:R3$$$V2.0)	<1	0.5	0.125	0.25
CC[C@H](C)[C@H](NC(=O)[C@@H](NC(=O)[C@@H]1C[C@@H](O)CN1C(=O)[C@@H](N)C(C)C)[C@@H](C)CC)C(=O)N[C@@H](Cc1ccc(O)cc1)C(=O)N[C@@H]1C(=O)N[C@@H](CC(N)=O)C(=O)N[C@@H](CCCNC(=N)N)C(=O)N[C@@H](CCN)C(=O)N[C@@H](CO)C(=O)N[C@H](CCN)C(=O)N[C@@H]([C@@H](C)CC)C(=O)N[C@H](C(=O)N[C@@H](CCN)C(=O)N[C@@H](CCCNC(=N)N)C(=O)N[C@@H](Cc2ccc(O)cc2)C(=O)O)CSSC1(C)C [Example 118, Val-Hyp-Ile-Ile-Tyr-Pen-Asn-Arg-Dab-Ser-^DDab-Ile-Cys-Dab-Arg-Tyr] (HELM PEPTIDE1{V.[Hyp].I.I.Y.[Pen].N.R.[Dab].S.[NCC[C@@H](N[*:1])C(=O)[*:2]].I.C.[Dab].R.Y}$PEPTIDE1,PEPTIDE1,6:R3-13:R3$$$V2.0)	<1	0.25	0.25	0.25
